Where two headings read alike, the source gives them in different places.
Biological target: β-amyloid (βA4) peptide (Homo sapiens, UniProt P05067)
Conditions: 37° C.; for percent decrease in aggregation of β-amyloid: 25 μM β-amyloid; for percent decrease in aggregation of β-amyloid / percentage of increase of aggregation: 48 hours
Method: β-amyloid (also known as (βA-4) peptide was dissolved in 100% dimethylsulfoxide (DMSO) at 10 mg/ml (or 2500 μM) concentration. The resultant solution was diluted to 1 mg/ml (or 250 μM) stock in Phosphate Buffered Saline (PBS), pH 7.4, just prior to setting up the assay and dispensed in individual sample wells of a Corning 96-well plate at 16 μl per well (i.e. a final concentration of 25 μM). All treatments were done in triplicate.
In this example, the candidate compound was added to the test wells at three different concentrations (250 μM, 500 μM and 1 mM). Total volume in each well was brought up to 160 μl with PBS. For untreated control wells, no compound was added to the β-amyloid peptide, and the total volume was made to 160 μl with PBS. The plates were sealed with parafilm and incubated at 37° C. for 48 hours.
(§1) At the end of the incubation period, the plates were taken out and 25 μl of Bio-Rad protein assay dye reagent (Bradford dye) was added to all the wells with samples. A standard curve was also set up at this time for estimation of fresh (also considered as unaggregared) peptide absorbance. The dye was mixed by pipeting and the plates quickly spun at 2500 rpm to remove bubbles.
The Absorbance was read at 595 nm in a Dynatech MR5000 plate reader 15 minutes after adding the dye.
The procedure of Example 1 was repeated except that hydrogen peroxide (10 μl of 30% stock) was added to the wells in a 96-well plate with 16 μl of the 1 mg/ml β-amyloid stock. The final volume was then brought up to 160 μl by adding 134 μl of PBS to these wells. The plate was sealed and incubated at 37° C. for 48 hours.
as §1, with “samples as in Example 1.” for “samples.”, “again used” for “also set up at this time”, “unaggregated)” for “unaggregared)”
The absorbance was read at 595 nm in the Dynatech MR5000 plate reader 15 minutes after adding the dye. The amount of aggregation was estimated by subtracting background and taking the difference between the fresh and hydrogen peroxide treated β-amyloid readings. The difference was expressed as percent over fresh or unaggregated peptide.

Chain of β-amyloid (βA4) peptide (P05067 672-713 limits assumed): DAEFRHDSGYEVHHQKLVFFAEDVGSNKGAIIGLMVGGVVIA

For OO [hydrogen peroxide], the “percentage of aggregation (difference between fresh and treated β-amyloid, percent over fresh peptide)” value (10 μl of 30% stock in 160 μl, after 48 hrs) was 97.7%.
In the case of CCCn1cnc2c1c(=O)n(CCCCC(C)=O)c(=O)n2C [propentofylline, 1-(5'-oxohexyl)-3-methyl-7-propyl-2,6-(1H,3H)-purinedione], the “percent decrease in aggregation of β-amyloid” value (500 μM compound) is reported as 29.68% and the “percent decrease in aggregation of β-amyloid” value (1 mM compound) is reported as 37.4%.
For pentosan polysulfate, the “percentage of increase of aggregation” value (0.5 μM compound) was 40.8%, the “percentage of increase of aggregation” value (5 μM compound) was 57.1% and the “percentage of increase of aggregation” value (50 μM compound) was 62.9%.
